Values joined by “and” are separate entries in the source; they are usually repeats but may differ in a detail not shown here. Equal values may be shown once. Read-outs that look alike come from different tables or passages of the source.
Experiments:
Type in all cases: cell-based
Salmonella spp. 017 = experiment: Ex.4 colony coloration, 5-bromo-3-indolyl nonanoate, DMSO/Tween 20, MacConkey; set-up: key to color: —: absence of colour or intensity
[1] = system: Salmonella enteritidis 006; experiment: as above
Salmonella typhi 118 = system: Salmonella typhi 118; as to intensity of coloration: key: 0: no activity; 0.1: trace of coloration; 0.5: very pale coloration; 1: distinct coloration of low intensity; 2: clear coloration of medium intensity; 3: intense coloration; 4: very intense coloration
Salmonella arizonae 018 = experiment: Ex.4 colony coloration, 5-bromo-3-indolyl nonanoate, DMSO/Tween 20, MacConkey; as to intensity of coloration: key: 0: no activity; 0.1: trace of coloration; 0.5: very pale coloration; 1: distinct coloration of low intensity; 2: clear coloration of medium intensity; 3: intense coloration; 4: very intense coloration
Escherichia coli 002 = experiment: as above; set-up: key: —: absence of colour or intensity
Hafnia alvei 025 = experiment: as above; set-up: key: —: absence of colour or intensity
[2] = system: bacterial species exhibiting esterase activity; experiment: Ex.4 overall conclusion, colony coloration; conditions: experimental conditions of Example 4
Description: This medium is then separated into eight portions.

With `CCCCC(CC)COS(=O)(=O)[O-].[Na+]` (centres unmarked) [Tergitol 8] the color (Salmonella spp. 017; 2 ml/l Tergitol 8, 24 h) was “gray”, the intensity of coloration (Salmonella spp. 017; 2 ml/l Tergitol 8, 24 h) was 0.5 and the color (Salmonella spp. 017; 2 ml/l Tergitol 8, 48 h) was “gray”. The intensity of coloration (Salmonella spp. 017; 2 ml/l Tergitol 8, 48 h) was 1.5, the color (Salmonella spp. 017; 4 ml/l Tergitol 8, 24 h) was “gray” and the intensity of coloration (Salmonella spp. 017; 4 ml/l Tergitol 8, 24 h) was 0.3. The color (Salmonella spp. 017; 4 ml/l Tergitol 8, 48 h) was “gray”, the intensity of coloration (Salmonella spp. 017; 4 ml/l Tergitol 8, 48 h) was 1 and the color (Salmonella spp. 017; 8 ml/l Tergitol 8, 24 h) was “—”. The color (Salmonella spp. 017; 8 ml/l Tergitol 8, 48 h) was “gray”, the intensity of coloration (Salmonella spp. 017; 8 ml/l Tergitol 8, 48 h) was 0.5 and the color ([1]; 2 ml/l Tergitol 8, 24 h) was “gray”. For the same molecule, the intensity of coloration ([1]; 2 ml/l Tergitol 8, 24 h) was 3, the color ([1]; 2 ml/l Tergitol 8, 48 h) was “gray” and the intensity of coloration ([1]; 2 ml/l Tergitol 8, 48 h) was 4. The color ([1]; 4 ml/l Tergitol 8, 24 h) was “gray”, the intensity of coloration ([1]; 4 ml/l Tergitol 8, 24 h) was 2.5 and the color ([1]; 4 ml/l Tergitol 8, 48 h) was “gray”. For the same molecule, the intensity of coloration ([1]; 4 ml/l Tergitol 8, 48 h) was 3, the color ([1]; 8 ml/l Tergitol 8, 24 h) was “gray” and the intensity of coloration ([1]; 8 ml/l Tergitol 8, 24 h) was 3. For the same molecule, the color ([1]; 8 ml/l Tergitol 8, 48 h) was “gray”, the intensity of coloration ([1]; 8 ml/l Tergitol 8, 48 h) was 3.5 and the color (Salmonella typhi 118) was “gray”. For the same molecule, the intensity of coloration (Salmonella typhi 118) was 1 and 1.5 and 2, the color (Salmonella arizonae 018; 2 ml/l Tergitol 8, 24 h) was “gray” and the intensity of coloration (Salmonella arizonae 018; 2 ml/l Tergitol 8, 24 h) was 2. The color (Salmonella arizonae 018; 2 ml/l Tergitol 8, 48 h) was “gray”, the intensity of coloration (Salmonella arizonae 018; 2 ml/l Tergitol 8, 48 h) was 4 and the color (Salmonella arizonae 018; 4 ml/l Tergitol 8, 24 h) was “gray”. The intensity of coloration (Salmonella arizonae 018; 4 ml/l Tergitol 8, 24 h) was 2, the color (Salmonella arizonae 018; 4 ml/l Tergitol 8, 48 h) was “gray” and the intensity of coloration (Salmonella arizonae 018; 4 ml/l Tergitol 8, 48 h) was 2.5. The color (Salmonella arizonae 018; 8 ml/l Tergitol 8, 24 h) was “gray”, the intensity of coloration (Salmonella arizonae 018; 8 ml/l Tergitol 8, 24 h) was 2 and the color (Salmonella arizonae 018; 8 ml/l Tergitol 8, 48 h) was “gray”. The intensity of coloration (Salmonella arizonae 018; 8 ml/l Tergitol 8, 48 h) was 2.5, the color (Escherichia coli 002; 2 ml/l Tergitol 8, 24 h) was “—” and the color (Escherichia coli 002; 2 ml/l Tergitol 8, 48 h) was “—”. For the same molecule, the color (Escherichia coli 002; 4 ml/l Tergitol 8, 24 h) was “—”, the color (Escherichia coli 002; 4 ml/l Tergitol 8, 48 h) was “—” and the color (Escherichia coli 002; 8 ml/l Tergitol 8, 24 h) was “—”. For the same molecule, the color (Escherichia coli 002; 8 ml/l Tergitol 8, 48 h) was “—”, the color (Hafnia alvei 025; 2 ml/l Tergitol 8, 24 h) was “—” and the color (Hafnia alvei 025; 2 ml/l Tergitol 8, 48 h) was “—”. The color (Hafnia alvei 025; 4 ml/l Tergitol 8, 24 h) was “—”, the color (Hafnia alvei 025; 4 ml/l Tergitol 8, 48 h) was “—” and the color (Hafnia alvei 025; 8 ml/l Tergitol 8, 24 h) was “—”. The color (Hafnia alvei 025; 8 ml/l Tergitol 8, 48 h) was “—” and the “effect on the esterase activity compared with Tergitol 4” value [2] was “not as pronounced as that observed with Tergitol 4”.

With “polyethylene glycol mono-p-isooctylphenyl ether [Triton X100]” the color (Salmonella spp. 017; 8 ml/l Triton X100, 24 h) was “gray”, the intensity of coloration (Salmonella spp. 017; 8 ml/l Triton X100, 24 h) was 1 and the color (Salmonella spp. 017; 8 ml/l Triton X100, 48 h) was “gray”. The intensity of coloration (Salmonella spp. 017; 8 ml/l Triton X100, 48 h) was 3, the color (Salmonella spp. 017; 16 ml/l Triton X100, 24 h) was “gray” and the intensity of coloration (Salmonella spp. 017; 16 ml/l Triton X100, 24 h) was 0.5. The color (Salmonella spp. 017; 16 ml/l Triton X100, 48 h) was “gray”, the intensity of coloration (Salmonella spp. 017; 16 ml/l Triton X100, 48 h) was 2 and the color (Salmonella spp. 017; 32 ml/l Triton X100, 24 h) was “—”. For the same molecule, the color (Salmonella spp. 017; 32 ml/l Triton X100, 48 h) was “gray”, the intensity of coloration (Salmonella spp. 017; 32 ml/l Triton X100, 48 h) was 0.5 and the color ([1]; 8 ml/l Triton X100, 24 h) was “gray”. The intensity of coloration ([1]; 8 ml/l Triton X100, 24 h) was 2, the color ([1]; 8 ml/l Triton X100, 48 h) was “gray” and the intensity of coloration ([1]; 8 ml/l Triton X100, 48 h) was 2.5. The color ([1]; 16 ml/l Triton X100, 24 h) was “gray”, the intensity of coloration ([1]; 16 ml/l Triton X100, 24 h) was 2 and the color ([1]; 16 ml/l Triton X100, 48 h) was “gray”. The intensity of coloration ([1]; 16 ml/l Triton X100, 48 h) was 2.5, the color ([1]; 32 ml/l Triton X100, 24 h) was “gray” and the intensity of coloration ([1]; 32 ml/l Triton X100, 24 h) was 1. The color ([1]; 32 ml/l Triton X100, 48 h) was “gray”, the intensity of coloration ([1]; 32 ml/l Triton X100, 48 h) was 1.5 and the color (Salmonella typhi 118; 8 ml/l Triton X100, 24 h) was “gray”. The intensity of coloration (Salmonella typhi 118; 8 ml/l Triton X100, 24 h) was 1, the color (Salmonella typhi 118; 8 ml/l Triton X100, 48 h) was “gray” and the intensity of coloration (Salmonella typhi 118; 8 ml/l Triton X100, 48 h) was 1. The color (Salmonella typhi 118; 16 ml/l Triton X100, 24 h) was “gray”, the intensity of coloration (Salmonella typhi 118; 16 ml/l Triton X100, 24 h) was 1 and the color (Salmonella typhi 118; 16 ml/l Triton X100, 48 h) was “gray”. For the same molecule, the intensity of coloration (Salmonella typhi 118; 16 ml/l Triton X100, 48 h) was 1, the color (Salmonella typhi 118; 32 ml/l Triton X100, 24 h) was “gray” and the intensity of coloration (Salmonella typhi 118; 32 ml/l Triton X100, 24 h) was 0.5. The color (Salmonella typhi 118; 32 ml/l Triton X100, 48 h) was “gray”, the intensity of coloration (Salmonella typhi 118; 32 ml/l Triton X100, 48 h) was 0.5 and the color (Salmonella arizonae 018; 8 ml/l Triton X100, 24 h) was “gray”. For the same molecule, the intensity of coloration (Salmonella arizonae 018; 8 ml/l Triton X100, 24 h) was 2, the color (Salmonella arizonae 018; 8 ml/l Triton X100, 48 h) was “gray” and the intensity of coloration (Salmonella arizonae 018; 8 ml/l Triton X100, 48 h) was 2.5. For the same molecule, the color (Salmonella arizonae 018; 16 ml/l Triton X100, 24 h) was “gray”, the intensity of coloration (Salmonella arizonae 018; 16 ml/l Triton X100, 24 h) was 2 and the color (Salmonella arizonae 018; 16 ml/l Triton X100, 48 h) was “gray”. For the same molecule, the intensity of coloration (Salmonella arizonae 018; 16 ml/l Triton X100, 48 h) was 2.5, the color (Salmonella arizonae 018; 32 ml/l Triton X100, 24 h) was “gray” and the intensity of coloration (Salmonella arizonae 018; 32 ml/l Triton X100, 24 h) was 1. The color (Salmonella arizonae 018; 32 ml/l Triton X100, 48 h) was “gray”, the intensity of coloration (Salmonella arizonae 018; 32 ml/l Triton X100, 48 h) was 2 and the color (Escherichia coli 002; 8 ml/l Triton X100, 24 h) was “—”. For the same molecule, the color (Escherichia coli 002; 8 ml/l Triton X100, 48 h) was “—”, the color (Escherichia coli 002; 16 ml/l Triton X100, 24 h) was “—” and the color (Escherichia coli 002; 16 ml/l Triton X100, 48 h) was “—”. For the same molecule, the color (Escherichia coli 002; 32 ml/l Triton X100, 24 h) was “—”, the color (Escherichia coli 002; 32 ml/l Triton X100, 48 h) was “—” and the color (Hafnia alvei 025; 8 ml/l Triton X100, 24 h) was “—”. The color (Hafnia alvei 025; 8 ml/l Triton X100, 48 h) was “—”, the color (Hafnia alvei 025; 16 ml/l Triton X100, 24 h) was “—” and the color (Hafnia alvei 025; 16 ml/l Triton X100, 48 h) was “—”. The color (Hafnia alvei 025; 32 ml/l Triton X100, 24 h) was “—”, the color (Hafnia alvei 025; 32 ml/l Triton X100, 48 h) was “—” and the “effect on the esterase activity compared with Tergitol 4” value [2] was “not as pronounced as that observed with Tergitol 4”.

From patent US7235379B2, “Method and medium for the detection/identification of microorgranisms with esterase activity” (Bio Merieux, priority 2000, dated 2007)
